According to PubChem BioAssay AID1205 (EPA DSSTox, 2008):
Activity calls are given as the source filed them.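 Rule for the calls: active = tumour findings in long-term animal cancer tests in more than one sex, species or organ; inactive = no tumour finding and more than one negative test.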

assay: DSSTox (CPDBAS) Carcinogenic Potency Database Summary MultiCellCall Results; details: animal carcinogenicity bioassays, multi-cell call summary
Description: The Carcinogenic Potency Database (CPDB) is a unique and widely used international resource of the results of over 6500 chronic, long-term animal cancer tests on over 1500 chemical substances. The CPDB provides easy access to the bioassay literature, with qualitative and quantitative analyses of both positive and negative experiments that have been published over the past 50 years in the general literature and by the National Cancer Institute/National Toxicology Program. The CPDB standardizes the diverse literature of cancer bioassays that vary widely in protocol, histopathological examination and nomenclature, and in the published author's choices of what information to provide in their papers. Results are reported in the CPDB for tests in rats, mice, hamsters, dogs, and nonhuman primates, and are based on the most positive result among all experiments for each sex-species. The DSSTox CPDBAS (all species) file incorporates data from the CPDB Summary Tables for the full list of over 1500 chemical substances tested in at least one species. A summary MultiCellCall, based on experimental bioassay results of one or more species, is provided in the DSSTox CPDBAS file (see Source URL) for more than 1150 chemical substances.
Associated TD50 values and tumor site details for the relevant species/sex experiment supporting the overall CPDBAS MultiSiteCall are provided in the full DSSTox CPDBAS file (see Comment) and the corresponding CPDBAS Species Bioassay in PubChem. ActivityScore is computed as follows: multispecies=50, multisex=30, multisite=20, with combination scores computed as sums of these values, e.g. multispecies+multisite=70.

SMILES | outcome
CC(=O)Nc1ccc2c(c1)Cc1ccccc1-2 | active; multisite active; multisex active; multispecies active
CCCCN(CC)C(=O)SCCC | inactive; multisex inactive
O=C(O)COc1ccc(Cl)cc1Cl | inactive; multisex inactive; multispecies inactive
CC(I)C1OCC(CO)O1 (stereo not given) | active; multisite active; multisex active; multispecies active
Nc1ccc(N)c(Cl)c1 | inactive; multisex inactive; multispecies inactive
CC(C)(C)O | active; multisite active; multisex active; multispecies active
CCN(CC)C(=S)[S-].CCN(CC)C(=S)[S-].[Cd+2] | inactive; multisex inactive
C=O | active; multisite active; multisex active; multispecies active
Cc1ccc(C)c(N)c1 | active; multisite active; multisex active; multispecies active
[N-]=[N+]=O | inactive; multisex inactive
O=NN1CCCCCC1 | active; multisite active; multisex active
COc1ccc(O)cc1 | active; multisex active
CC(/C=C/C=C(\C)C(=O)O[C@@H]1O[C@H](CO[C@@H]2O[C@H](CO)[C@@H](O)[C@H](O)[C@H]2O)[C@@H](O)[C@H](O)[C@H]1O)=C\C=C\C=C(C)\C=C\C=C(/C)C(=O)O[C@@H]1O[C@H](CO[C@@H]2O[C@H](CO)[C@@H](O)[C@H](O)[C@H]2O)[C@@H](O)[C@H](O)[C@H]1O | inactive; multisex inactive
O=C(CCl)c1ccccc1 | inactive; multisex inactive; multispecies inactive
CCc1nc(N)nc(N)c1-c1ccc(Cl)cc1 | inactive; multisex inactive; multispecies inactive
Nc1ccc2ccccc2c1S(=O)(=O)O | inactive; multisex inactive
O=S(=O)(O)c1ccc(N=Nc2cc(S(=O)(=O)O)c3ccccc3c2O)c2ccccc12 | inactive; multisex inactive; multispecies inactive
Cc1c(N)cccc1N | inactive; multisex inactive; multispecies inactive
Cc1cc(OC(=O)N(C)C)n(C(C)C)n1 | inactive; multisex inactive
Nc1ccc(NCCO)c([N+](=O)[O-])c1 | inactive; multisex inactive; multispecies inactive
CCNC(=O)N(CCO)N=O | active; multisite active; multisex active
CN(N=O)C(=O)NCCC[C@H](N)C(=O)O | active; multisite active; multisex active
Nc1ccc(Cc2ccc(N)c(Cl)c2)cc1Cl | active; multisite active; multisex active; multispecies active

SMILES | outcome
ClCc1ccccn1 | inactive; multisex inactive; multispecies inactive
CN1C(C(=O)Nc2ccccn2)=C(O)c2sc(Cl)cc2S1(=O)=O | inactive; multisex inactive
CC(=O)Nc1ccc(N=Nc2cc(C)ccc2O)cc1 | active; multisex active; multispecies active
S=P(N1CC1)(N1CC1)N1CC1 | active; multisite active; multisex active; multispecies active
C=CCN(N)CC=C | active; multisite active; multisex active
OCCN(CCO)CCO | active; multisex active
[Cl-].[Cl-].[Sn+2] | inactive; multisex inactive; multispecies inactive
CCCCCCCCCCC(C)c1ccc(S(=O)(=O)O)cc1 (stereo not given) | inactive; multisex inactive
CN(C)C(=S)SC(=S)N(C)C | inactive; multisex inactive
NS(=O)(=O)c1cc2c(cc1Cl)NCNS2(=O)=O | inactive; multisex inactive; multispecies inactive
CCCc1ccc2c(c1)OCO2 | active; multisite active; multisex active; multispecies active
C[N+](=O)[O-] | active; multisite active; multisex active; multispecies active
NNCCc1ccccc1 | active; multisite active
Nc1ncc([N+](=O)[O-])s1 | active; multisite active
O=C1C2(Cl)C3(Cl)C4(Cl)C(Cl)(Cl)C5(Cl)C3(Cl)C1(Cl)C5(Cl)C24Cl (stereo not given) | active; multisex active; multispecies active
COc1ccccc1N1CCN(CCCNc2cc(=O)n(C)c(=O)n2C)CC1 | inactive; multisex inactive
OCc1ccccc1 | inactive; multisex inactive; multispecies inactive
Cc1cccc2ccccc12 | inactive; multisex inactive
NC(=O)/C(=C\c1ccc([N+](=O)[O-])o1)c1ccco1 | active; multisite active; multisex active; multispecies active
CC(C)OC(=O)Nc1ccccc1 | inactive; multisex inactive; multispecies inactive
CCCc1cc(=O)[nH]c(=S)[nH]1 | active; multisite active; multisex active; multispecies active
CCCCCc1cc(O)c2c(c1)OC(C)(C)[C@@H]1CCC(C)=C[C@@H]21 | inactive; multisex inactive; multispecies inactive
O=CCCCC=O | inactive; multisex inactive; multispecies inactive

SMILES | outcome
NNC(N)=O | active; multisite active; multisex active
C=CC(O)c1ccc2c(c1)OCO2 (stereo not given) | active; multisite active; multisex active; multispecies active
O=NN(CC(F)(F)F)CC(F)(F)F | inactive; multisex inactive
CCNc1nc(Cl)nc(NCC)n1 | inactive; multisex inactive
Cc1cc(O)c2c(c1O)C(=O)C13C(=C2O)C(=O)C2C(O)C1C1C(O)C3C(=O)C3=C(O)c4c(O)cc(C)c(O)c4C(=O)C321 (stereo not given) | active; multisex active
CCOc1ccc2c(c1)C(C)=CC(C)(C)N2 | inactive; multisex inactive
NCCNc1cccc2ccccc12 | inactive; multisex inactive; multispecies inactive
ClC1=C(Cl)C(Cl)(Cl)C(Cl)=C1Cl | inactive; multisex inactive; multispecies inactive
COc1ccc(C(=O)/C(Br)=C\C(=O)O)cc1 | active; multisite active; multisex active
C=CCOC(=O)CC(C)C | active; multisex active; multispecies active
COC(N)=O | active; multisex active
NC(=S)Nc1cccc2ccccc12 | inactive; multisex inactive
CC(=O)NNC(C)=O | inactive; multisex inactive
CC(Oc1cc(Cl)ccc1Cl)C(=O)O (stereo not given) | inactive; multisex inactive
CCCCCCCCCCCC[N+](C)(C)[O-] | inactive; multisex inactive
C=C1C/C(=C/C)C(=O)O[C@@H]2CCN3CC=C(COC(=O)[C@@]1(O)CO)[C@H]23 | active; multisite active; multisex active; multispecies active
Nc1ccc(N(CCO)CCO)cc1 | inactive; multisex inactive
CCCCNC(=O)NS(=O)(=O)c1ccc(C)cc1 | inactive; multisex inactive; multispecies inactive
CCOC(=O)[C@H](CCc1ccccc1)N[C@@H](C)C(=O)N1Cc2ccccc2C[C@H]1C(=O)O | inactive; multisex inactive; multispecies inactive
O=S(=O)(Oc1ccc(Cl)cc1Cl)c1ccccc1 | inactive; multisex inactive
CN(C)c1ccc(C(=N)c2ccc(N(C)C)cc2)cc1 | active; multisex active; multispecies active
CCN(CC)C(=O)c1cccc(C)c1 | inactive; multisex inactive; multispecies inactive
CNCc1ccc(CSCCNC(=NCC(O)c2ccc(O)cc2)NS(C)(=O)=O)o1 (stereo not given) | active; multisex active

SMILES | outcome
Nc1ccc(Nc2ccccc2)cc1 | inactive; multisex inactive; multispecies inactive
COC(=O)C(C)(C)Oc1ccc(-c2ccc(Cl)cc2)cc1 | active; multisite active; multisex active; multispecies active
CC(C)(C)c1cc(C(C)(C)C)c(O)c(C(C)(C)C)c1 | inactive; multisex inactive
CCOCCc1c(-c2ccccc2)nc(N)n2ncnc12 | active; multisite active; multisex active
N#Cc1c(Cl)c(Cl)c(Cl)c(C#N)c1Cl | active; multisex active
CC(O)COC(C)(C)C (stereo not given) | active; multisex active
CCOc1ccc(NC(C)=O)cc1 | active; multisite active; multisex active; multispecies active
O=c1c(O)c(-c2ccc(O)cc2)oc2cc(O)cc(O)c12 | inactive; multisex inactive
Cc1ccc(N=Nc2c(O)ccc3ccccc23)c([N+](=O)[O-])c1 | active; multisite active; multisex active; multispecies active
O=C1CCO1 | active; multisex active; multispecies active
CN(CCc1ccccc1)N=O | active; multisite active
O=S(=O)(c1ccc(Cl)cc1)c1cc(Cl)c(Cl)cc1Cl | inactive; multisex inactive
CC(=O)NCc1nc(-c2ccc([N+](=O)[O-])o2)no1 | active; multisite active
CC1=CC(=O)NS(=O)(=O)O1 | inactive; multisex inactive
CC1=C(/C=C/C(C)=C/C=C/C(C)=C/C=C/C=C(C)/C=C/C=C(C)/C=C/C2=C(C)CCCC2(C)C)C(C)(C)CCC1 | inactive; multisex inactive; multispecies inactive
CCOP(=S)(OCC)SC1OCCOC1SP(=S)(OCC)OCC (stereo not given) | inactive; multisex inactive; multispecies inactive
Nc1ccc(/C=C/c2ccc(N)cc2S(=O)(=O)O)c(S(=O)(=O)O)c1 | inactive; multisex inactive; multispecies inactive
O=C(O)CCl | inactive; multisex inactive; multispecies inactive
NC(=S)NNC(N)=S | inactive; multisex inactive; multispecies inactive
OCC1CO1 (stereo not given) | active; multisite active; multisex active; multispecies active
Nc1nnc(-c2ccc([N+](=O)[O-])o2)s1 | active; multisite active
